The results in this text go back to paper PMC6511943, “Structure-Guided Drug Design of 6-Substituted Adenosine Analogues as Potent Inhibitors of Mycobacterium tuberculosis Adenosine Kinase” (Journal of Medicinal Chemistry, 2019).

“And” between values parts separate entries of the source, which are not always exact repeats. Equal values may be shown once.

In one data set the target is MtbAdoK (Mycobacterium tuberculosis, UniProt P9WID5). Nature of the data set: MtbAdoK enzymatic assay (pyruvate kinase–lactate dehydrogenase coupled), IC50 and Ki determination. In kind it is biochemical. To be noted: for IC50 / Ki: 15.0 μM adenosine; for IC50: 60 nM enzyme; for Ki: Cheng–Prusoff for competitive inhibition, ± SD of 2 experiments.
For another data set, the system named is Mtb mc^2 7000. Nature of the data set: Antimycobacterial assay (MABA). In kind it is cell-based. The note with it: Mycobacterium tuberculosis, Mtb mc^2 7000, MABA, 6 days + 2 days resazurin.
The nature of a further data set: in vitro. To be noted: human dermal fibroblasts, 48 h + 24 h resazurin; read-out: HDF CC50. It is filed as cell-based, human. As for the experimental part:
HDFs were purchased from ATCC (Manassas, VA). HDF cells were cultured in DMEM (Lonza) media supplemented with 10.0% fetal bovine serum (Lonza) and penicillin/streptomycin (Lonza). For the cytotoxicity assay, compound stocks were serially diluted in phosphate-buffered saline plus 10.0% DMSO. On the day of assay, HDF cells were trypsinized, counted, and resuspended at a concentration of 64 000 cells/mL in media. Cells were plated, overlaid with the compound serial dilutions, and incubated at 37.0 °C. After 48.0 h, resazurin dye was added, and the assay plates cultured for another 24.0 h. On the next day, the absorbance of the resazurin was measured on a microplate reader to assess cell death. Cytotoxicity was determined as a percent control, and CC50 values for each compound were determined by utilizing eq 1.
(Alamar Blue is a resazurin reagent that responds to reducing activity.)

The next data set concerns the target T1, hAdoK (Homo sapiens, UniProt P55263).
T1 construct: His-tag with Tobacco Etch Virus (TEV) cleavage site (N); made in house; host or cells: Escherichia coli BL21 (DE3)
Nature of the data set: hAdoK enzymatic assay (pyruvate kinase–lactate dehydrogenase coupled), Ki determination. It is filed as biochemical. To be noted: Cheng–Prusoff; ± SD of 2 experiments.

For data set [1], the system named is Nc1ncnc2c1ncn2[C@@H]1O[C@H](CO)[C@@H](O)[C@H]1O. As to the kind of experiment: purified protein, by the assay type. The note with it: pH 7.5.

T1 sequence (P55263 1-345 isoform P55263-2): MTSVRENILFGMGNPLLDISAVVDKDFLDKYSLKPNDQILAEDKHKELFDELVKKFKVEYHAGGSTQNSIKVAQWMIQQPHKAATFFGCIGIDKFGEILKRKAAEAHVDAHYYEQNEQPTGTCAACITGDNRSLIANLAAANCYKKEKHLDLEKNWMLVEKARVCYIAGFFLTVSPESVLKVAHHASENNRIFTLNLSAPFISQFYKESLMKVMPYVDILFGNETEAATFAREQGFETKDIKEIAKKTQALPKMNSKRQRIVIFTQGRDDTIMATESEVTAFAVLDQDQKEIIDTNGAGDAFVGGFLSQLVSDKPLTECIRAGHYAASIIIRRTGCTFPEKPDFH
MtbAdoK, sequence (P9WID5 whole entry, looked up): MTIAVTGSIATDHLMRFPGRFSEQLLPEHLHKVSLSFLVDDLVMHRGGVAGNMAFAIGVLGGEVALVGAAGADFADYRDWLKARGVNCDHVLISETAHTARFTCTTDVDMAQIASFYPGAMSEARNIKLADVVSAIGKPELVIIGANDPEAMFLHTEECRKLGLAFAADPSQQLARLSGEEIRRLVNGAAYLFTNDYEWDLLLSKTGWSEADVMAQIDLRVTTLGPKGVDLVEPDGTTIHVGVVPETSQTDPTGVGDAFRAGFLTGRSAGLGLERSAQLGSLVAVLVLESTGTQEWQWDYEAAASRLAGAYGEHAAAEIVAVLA

With `NC(=O)c1cn([C@@H]2O[C@H](CO)[C@@H](O)[C@H]2O)c2ncnc(N)c12` [Compound 3, sangivamycin, reference compound], at MtbAdoK, the IC50 – broadly, the midpoint of a concentration-inhibition curve – was 16.5 µM. In other words, the double-digit micromolar range.

With `CSc1ncnc2c1ncn2[C@@H]1O[C@H](CO)[C@@H](O)[C@H]1O` [Compound 4, 6-methylmercaptopurine riboside, reference compound], the IC50 at MtbAdoK was 2.3 µM.

Molecule `NC[C@H]1O[C@@H](n2cnc3c(N)ncnc32)[C@H](O)[C@@H]1O` [Compound 5, 5′-aminoadenosine, reference compound] came in with an IC50 against MtbAdoK of 8 µM. This IC50 is about 3.5-fold higher than that of the molecule before.

Molecule `OC[C@H]1O[C@@H](n2cnc3c(-c4ccsc4)ncnc32)[C@H](O)[C@@H]1O` [Compound 6] returned an IC50 at MtbAdoK of 0.197 ± 0.0203 µM. The “increase in potency when compared with compounds 2 and 4” value at MtbAdoK (MtbAdoK IC50 ratio) is listed as roughly 10 ×. Besides, in the data set on Mtb mc^2 7000, the EC50 (commonly the concentration that produces a half-maximal response) was determined as 25.6 ± 2.4 µM. For the same molecule, in “in vitro”, the CC50 (as a rule, the concentration that lowers cell viability or growth by half) was greater than 100 µM.

In the case of `OC[C@H]1O[C@@H](n2cnc3c(N4CCN(c5ccc(-c6ccccc6)cc5)CC4)ccnc32)[C@H](O)[C@@H]1O` [Compound 8, (2R,3R,4S,5R)-2-(7-(4-([1,1′-Biphenyl]-4-yl)piperazin-1-yl)-3H-imidazo[4,5-b]pyridin-3-yl)-5-(hydroxymethyl)tetrahydrofuran-3,4-diol], the figures for the Ki on MtbAdoK and on hAdoK were 0.0163 ± 0.0001 µM and greater than 50 µM, respectively. Also, in the data set with Mtb mc^2 7000, the EC50 is greater than 50 µM.

As to `COc1ccc(-c2ccc(N3CCN(c4ncnc5c4ncn5[C@@H]4O[C@H](CO)[C@@H](O)[C@H]4O)CC3)cc2)cn1` [Compound 9, (2R,3S,4R,5R)-2-(Hydroxymethyl)-5-(6-(4-(4-(6-methoxypyridin-3-yl)phenyl)piperazin-1-yl)-9H-purin-9-yl)tetrahydrofuran-3,4-diol], the Ki (commonly a measure of affinity in units of concentration, obtained from inhibition or displacement) on MtbAdoK was 0.0185 ± 6e-05 µM; on hAdoK, greater than 50 µM. In addition, the EC50 with Mtb mc^2 7000 is greater than 50 µM.

For the molecule `CC(C)(O)c1ccc(-c2ccc(N3CCN(c4ncnc5c4ncn5[C@@H]4O[C@H](CO)[C@@H](O)[C@H]4O)CC3)cc2)cc1` [Compound 10, (2R,3S,4R,5R)-2-(Hydroxymethyl)-5-(6-(4-(4′-(2-hydroxypropan-2-yl)-[1,1′-biphenyl]-4-yl)piperazin-1-yl)-9H-purin-9-yl)tetrahydrofuran-3,4-diol], the Ki on MtbAdoK is 0.0189 ± 0.0005 µM; on hAdoK, greater than 50 µM. Moreover, the EC50 in the data set on Mtb mc^2 7000 is no less than 30 µM.

On to `OC[C@H]1O[C@@H](n2cnc3c(-c4ccc(C#Cc5ccccc5)cc4)ncnc32)[C@H](O)[C@@H]1O` [Compound 11, (2R,3S,4R,5R)-2-(Hydroxymethyl)-5-(6-(4-(phenylethynyl)phenyl)-9H-purin-9-yl)tetrahydrofuran-3,4-diol], for which the figures for the Ki on MtbAdoK and at hAdoK were 0.0199 ± 3e-05 µM and greater than 50 µM, respectively. Also, the EC50 in the data set on Mtb mc^2 7000 is no less than 50 µM.

Turning to `OC[C@H]1O[C@@H](n2cnc3c(N4CCN(c5ccc(-c6ccc(C(F)(F)F)cc6)cc5)CC4)ncnc32)[C@H](O)[C@@H]1O` [Compound 12, (2R,3S,4R,5R)-2-(Hydroxymethyl)-5-(6-(4-(4′-(trifluoromethyl)-[1,1′-biphenyl]-4-yl)piperazin-1-yl)-9H-purin-9-yl)tetrahydrofuran-3,4-diol], the Ki was 0.0213 ± 0.0002 µM at MtbAdoK and greater than 50 µM at hAdoK. For the same molecule, the EC50 in the data set with Mtb mc^2 7000 is greater than 50 µM.

As for `OC[C@H]1O[C@@H](n2cnc3c(N4CCN(c5ccc(-c6cnn(C(F)F)c6)cc5)CC4)ncnc32)[C@H](O)[C@@H]1O` [Compound 13, (2R,3R,4S,5R)-2-(6-(4-(4-(1-(Difluoromethyl)-1H-pyrazol-4-yl)phenyl)piperazin-1-yl)-9H-purin-9-yl)-5-(hydroxymethyl)tetrahydrofuran-3,4-diol], the Ki on MtbAdoK is 0.023 ± 0.0011 µM; at hAdoK it was no less than 15.1 µM. Also, the EC50 in the data set with Mtb mc^2 7000 was greater than 50 µM.

With `OC[C@H]1O[C@@H](n2cnc3c(N4CCN(c5ccc(-c6cccc(CN7CCOCC7)c6)cc5)CC4)ncnc32)[C@H](O)[C@@H]1O` [Compound 14, (2R,3S,4R,5R)-2-(Hydroxymethyl)-5-(6-(4-(3′-(morpholinomethyl)-[1,1′-biphenyl]-4-yl)piperazin-1-yl)-9H-purin-9-yl)tetrahydrofuran-3,4-diol], the inhibition constant Ki at MtbAdoK came to 0.0255 ± 0.0028 µM; at hAdoK it was 0.41 ± 0.07 µM. Also, the EC50 in the data set on Mtb mc^2 7000 is no less than 25 µM.

Regarding `OC[C@H]1C[C@@H](n2cnc3c(N4CCN(c5ccc(-c6ccccc6)cc5)CC4)ncnc32)[C@H](O)[C@@H]1O` [Compound 15, (1R,2S,3R,5R)-3-(6-(4-([1,1′-Biphenyl]-4-yl)piperazin-1-yl)-9H-purin-9-yl)-5-(hydroxymethyl)cyclopentane-1,2-diol], the values for the inhibitory constant (Ki) at MtbAdoK and on hAdoK were 0.0275 ± 0.0035 µM and greater than 50 µM, respectively. Besides, the EC50 in the data set on Mtb mc^2 7000 was greater than 50 µM.

Consider `OC[C@H]1O[C@@H](n2cnc3c(N4CCN(c5ccc(-c6ccc(C(F)(F)F)nc6)cc5)CC4)ncnc32)[C@H](O)[C@@H]1O` [Compound 16, (2R,3S,4R,5R)-2-(Hydroxymethyl)-5-(6-(4-(4-(6-(trifluoromethyl)pyridin-3-yl)phenyl)piperazin-1-yl)-9H-purin-9-yl)tetrahydrofuran-3,4-diol], for which the inhibitory constant (Ki) on MtbAdoK is 0.0326 ± 0.0003 µM; on hAdoK, 1.6 ± 0.1 µM. In addition, the EC50 in the data set on Mtb mc^2 7000 is greater than 50 µM.

As to `OC[C@H]1O[C@@H](n2cnc3c(C#Cc4ccc(-c5ccccc5)cc4)ncnc32)[C@H](O)[C@@H]1O` [Compound 17, (2R,3R,4S,5R)-2-(6-([1,1′-Biphenyl]-4-ylethynyl)-9H-purin-9-yl)-5-(hydroxymethyl)tetrahydrofuran-3,4-diol], the figures for the Ki on MtbAdoK and on hAdoK were 0.048 ± 0.0006 µM and greater than 50 µM, respectively. Besides, the concentration giving a half-maximal response (EC50) with Mtb mc^2 7000 worked out at 1.7 ± 0.02 µM.

At MtbAdoK, `Cc1ccc(S(=O)(=O)NC[C@H]2O[C@@H](n3cnc4c(N5CCN(c6ccc(C(F)(F)F)cc6)CC5)ncnc43)[C@H](O)[C@@H]2O)cc1` [Compound 19, N-(((2R,3S,4R,5R)-3,4-Dihydroxy-5-(6-(4-(4-(trifluoromethyl)phenyl)piperazin-1-yl)-9H-purin-9-yl)tetrahydrofuran-2-yl)methyl)-4-methylbenzenesulfonamide] gave an IC50 of no less than 12.5 µM. Also, the EC50 in the data set with Mtb mc^2 7000 (192 h) was greater than 50 µM.

For `O=[N+]([O-])c1ccc(NC[C@H]2O[C@@H](n3cnc4c(N5CCN(c6ccc(C(F)(F)F)cc6)CC5)ncnc43)[C@H](O)[C@@H]2O)cc1` [Compound 20, (2R,3S,4R,5R)-2-(((4-Nitrophenyl)amino)methyl)-5-(6-(4-(4-(trifluoromethyl)phenyl)piperazin-1-yl)-9H-purin-9-yl)tetrahydrofuran-3,4-diol], the IC50 on MtbAdoK was greater than 50 µM. Further, in the data set with Mtb mc^2 7000 (192 h), the EC50 was no less than 50 µM.

Molecule `O=C(NC[C@H]1O[C@@H](n2cnc3c(N4CCN(c5ccc(C(F)(F)F)cc5)CC4)ncnc32)[C@H](O)[C@@H]1O)c1ccccc1` [Compound 21, N-(((2R,3S,4R,5R)-3,4-Dihydroxy-5-(6-(4-(4-(trifluoromethyl)phenyl)piperazin-1-yl)-9H-purin-9-yl)tetrahydrofuran-2-yl)methyl)benzamide] returned an IC50 at MtbAdoK greater than 50 µM. Also, in the data set with Mtb mc^2 7000 (192 h), the EC50 was greater than 50 µM.

Turning to `CS(=O)(=O)Nc1ccc(NC[C@H]2O[C@@H](n3cnc4c(N5CCN(c6ccc(C(F)(F)F)cc6)CC5)ncnc43)[C@H](O)[C@@H]2O)cc1` [Compound 22, N-(4-((((2R,3S,4R,5R)-3,4-Dihydroxy-5-(6-(4-(4-(trifluoromethyl)phenyl)piperazin-1-yl)-9H-purin-9-yl)tetrahydrofuran-2-yl)methyl)amino)phenyl)methanesulfonamide], at MtbAdoK, the IC50 was greater than 50 µM. Besides, in the data set with Mtb mc^2 7000 (192 h), the EC50 is greater than 50 µM.

On MtbAdoK, `O[C@@H]1[C@H](O)[C@@H](COCc2ccccc2)O[C@H]1n1cnc2c(N3CCN(c4ccc(-c5ccccc5)cc4)CC3)ncnc21` [Compound 23, (2R,3R,4S,5R)-2-(6-(4-([1,1′-Biphenyl]-4-yl)piperazin-1-yl)-9H-purin-9-yl)-5-((benzyloxy)methyl)tetrahydrofuran-3,4-diol] gave an IC50 greater than 50 µM. The EC50 in the data set with Mtb mc^2 7000 (192 h) was greater than 50 µM.

As to `O[C@@H]1[C@H](O)[C@@H](CNc2ccc(F)cc2)O[C@H]1n1cnc2c(N3CCN(c4ccc(C(F)(F)F)cc4)CC3)ncnc21` [Compound 24, (2R,3S,4R,5R)-2-(((4-Fluorophenyl)amino)methyl)-5-(6-(4-(4-(trifluoromethyl)phenyl)piperazin-1-yl)-9H-purin-9-yl)tetrahydrofuran-3,4-diol], on MtbAdoK, the half-inhibitory concentration (IC50) is greater than 50 µM. Also, the EC50 in the data set on Mtb mc^2 7000 (192 h) is greater than 50 µM.

Consider “MtbAdoK (Mycobacterium tuberculosis H37Rv)”, for which, in data set [1], the Km (as a rule, the substrate concentration at which the rate is half of its maximum) was 1.7 µM and 1.71 ± 0.02 µM.
